Laboratory results from US7875634B2, “Cyano anthranilamide insecticides” (E. I. du Pont de Nemours and Company, priority 2003, dated 2011).

Tests used:
Assay type in all cases: in vivo
[1] = test system: green peach aphid (Myzus persicae); test: Test H: foliar movement of compound through the plant, green peach aphid mortality (radish); conditions: applied at 1000 ppm, 20 microliters by pipet to two leaves of radish plant; infested after 2 days, held 8 additional days; insects fed on untreated plant tissues
Source text: (§1) For evaluating movement of compounds in plants and control of green peach aphid (Myzus persicae) and potato leafhopper (Empoasca fabae) after foliar movement of compound through the plant, the test unit consisted of a small open container with a 12-15-day-old radish plant (for green peach aphid test) or 5-6 day old Longio bean plant (for potato leafhopper test).
(§2) Test compounds were formulated using a solution containing 10% acetone, 90% water and 600 ppm X-77® Spreader Lo-Foam Formula non-ionic surfactant containing alkylarylpolyoxyethylene, free fatty acids, glycols and isopropanol (Loveland Industries, Inc.). The formulated compounds were applied in 20 microliters by pipet to two larger photosynthetically active leaves. All experimental compounds in this screen were applied at 1000 ppm, and the tests were replicated three times. After applying the formulated test compounds, the soil of each test unit was covered with a layer of sand and each test unit was allowed to dry for 1 hr and then a black, screened cap was placed on top. The test units were held in a growth chamber at about 20° C. and 50-70% relative humidity.
(§3) After 2 days, the treated leaves were covered on all sides with a fine plastic mesh, but with the leaf petiole intact and still attached to the plant to allow normal vascular movement and photosynthesis. The plants were then infested with 20-30 aphids (radish) or 20 leafhoppers (bean) and held in the growth chamber for 8 additional days. Each test unit was then visually assessed for mortality of the insects, which had contacted and fed on the untreated plant tissues.

[2] = test system: potato leafhopper (Empoasca fabae); test: Test H: foliar movement of compound through the plant, potato leafhopper mortality (bean); conditions: applied at 1000 ppm, 20 microliters by pipet to two leaves of bean plant; infested after 2 days, held 8 additional days; insects fed on untreated plant tissues
Source text: as §1, §2, §3

[3] = test system: green peach aphid (Myzus persicae); test: Test C: control of green peach aphid through contact and/or systemic means, spray on radish; conditions: 144 h
Source text: For evaluating control of green peach aphid (Myzus persicae) through contact and/or systemic means, the test unit consisted of a small open container with a 12-15-day-old radish plant inside. This was pre-infested by placing on a leaf of the test plant 30-40 aphids on a piece of leaf excised from a culture plant (cut-leaf method). The larvae moved onto the test plant as the leaf piece desiccated. After pre-infestation, the soil of the test unit was covered with a layer of sand.
Test compounds were formulated using a solution containing 10% acetone, 90% water and 300 ppm X-77® Spreader Lo-Foam Formula non-ionic surfactant containing alkylarylpolyoxyethylene, free fatty acids, glycols and isopropanol (Loveland Industries, Inc.). The formulated compounds were applied in 1 mL of liquid through a SUJ2 atomizer nozzle with ⅛ JJ custom body (Spraying Systems Co.) positioned 1.27 cm (0.5 inches) above the top of each test unit. All experimental compounds in this screen were sprayed at 250 ppm, replicated three times. After spraying of the formulated test compound, each test unit was allowed to dry for 1 hour and then a black, screened cap was placed on top. The test units were held for 6 days in a growth chamber at 19-21° C. and 50-70% relative humidity. Each test unit was then visually assessed for insect mortality.

[4] = test system: potato leafhopper (Empoasca fabae Harris); test: Test D: control of potato leafhopper through contact and/or systemic means, spray on bean plant; conditions: 144 h
Procedure: For evaluating control of potato leafhopper (Empoasca fabae Harris) through contact and/or systemic means, the test unit consisted of a small open container with a 5-6 day old Longio bean plant (primary leaves emerged) inside. White sand was added to the top of the soil and one of the primary leaves was excised prior to application. Test compounds were formulated and sprayed at 250 ppm and replicated three times as described for Test C. After spraying, the test units were allowed to dry for 1 hour before they were post-infested with 5 potato leafhoppers (18 to 21 day old adults). A black, screened cap was placed on the top of the cylinder. The test units were held for 6 days in a growth chamber at 19-21° C. and 50-70% relative humidity. Each test unit was then visually assessed for insect mortality.

[5] = test system: cotton melon aphid (Aphis gossypii); test: Test E: control of cotton melon aphid through contact and/or systemic means, spray on cotton; conditions: 144 h
Source text: For evaluating control of cotton melon aphid (Aphis gossypii) through contact and/or systemic means, the test unit consisted of a small open container with a 6-7-day-old cotton plant inside. This was pre-infested with 30-40 insects on a piece of leaf according to the cut-leaf method described for Test C, and the soil of the test unit was covered with a layer of sand.
Test compounds were formulated and sprayed at 250 ppm as described for Test D. The applications were replicated three times. After spraying, the test units were maintained in a growth chamber and then visually rated as described for Test D.

[6] = test system: corn planthopper (Peregrinus maidis); test: Test F: control of corn planthopper through contact and/or systemic means, spray on corn; conditions: 144 h
Procedure: For evaluating control of corn planthopper (Peregrinus maidis) through contact and/or systemic means, the test unit consisted of a small open container with a 3-4 day old corn (maize) plant (spike) inside. White sand was added to the top of the soil prior to application. Test compounds were formulated and sprayed at 250 ppm and replicated three times as described for Test C. After spraying, the test units were allowed to dry for 1 hour before they were post-infested with 10-20 corn planthoppers (18- to 20-day old nymphs) by sprinkling them onto the sand with a salt shaker. A black, screened cap was placed on the top of the cylinder. The test units were held for 6 days in a growth chamber at 19-21° C. and 50-70% relative humidity. Each test unit was then visually assessed for insect mortality.

[7] = test system: green peach aphid (Myzus persicae); test: Test 1 (I): xylem movement from soil application, green peach aphid mortality (radish); conditions: for % GPA M (green peach aphid mortality): 1000 ppm, 1 mL to soil at base of radish plant, infested after 2 days, held 5 additional days
Source text: (§4) For evaluating movement of compounds in plants and control of green peach aphid (Myzus persicae) and potato leafhopper (Empoasca fabae) after xylem movement of compound from soil application up through roots into foliage, the test unit consisted of a small open container with a 12-15-day-old radish plant (for green peach aphid test) or 5-6-day-old Longio bean plant (for potato leafhopper test).
as §2, with “in 1 mL of solution” for “in 20 microliters”, “to the soil at the base of the plant.” for “to two larger photosynthetically active leaves.”, “compounds, each test unit was allowed to dry for 1 h. The” for “compounds, the”, “sand” for “sand and each test unit was allowed to dry for 1 hr”
(§5) After 2 days, the plants were then infested with 20-30 aphids (radish) or 20 leafhoppers (bean) and held in the growth chamber for 5 additional days. Each test unit was then visually assessed for mortality of the insects, which had contacted and fed on the untreated plant foliage.

[8] = test system: potato leafhopper (Empoasca fabae); test: Test 1 (I): xylem movement from soil application, potato leafhopper mortality (bean); conditions: for % PLH M (potato leafhopper mortality): 1000 ppm, 1 mL to soil at base of bean plant, infested after 2 days, held 5 additional days
Source text: as §4
as §2, with “in 1 mL of solution” for “in 20 microliters”, “to the soil at the base of the plant.” for “to two larger photosynthetically active leaves.”, “compounds, each test unit was allowed to dry for 1 h. The” for “compounds, the”, “sand” for “sand and each test unit was allowed to dry for 1 hr”
as §5

Structure (SMILES) | % GPA M (green peach aphid mortality) [1] | % PLH M (potato leafhopper mortality) [2] | % GPA M (green peach aphid mortality) [7] | % PLH M (potato leafhopper mortality) [8] | other results
Cc1cc(C#N)cc(C(N)=O)c1NC(=O)c1cc(Cl)nn1-c1ncccc1Cl [Compound 4] | 78% | 93% | – | – | –
Cc1cc(C#N)cc(C(N)=O)c1NC(=O)c1cc(C(F)(F)F)nn1-c1ncccc1Cl [Compound 1] | 87% | 58% | – | – | mortality at 250 ppm [3]: ≥ 80%; mortality at 250 ppm [4]: ≥ 80%; mortality at 250 ppm [5]: ≥ 80%; mortality at 250 ppm [6]: ≥ 80%; mortality at 1000 ppm ([7]; Myzus persicae, soil, read-out: % GPA M (green peach aphid mortality)): 64%; mortality at 1000 ppm ([8]; Empoasca fabae, soil, read-out: % PLH M (potato leafhopper mortality)): 100%
Cc1cc(C#N)cc(C(N)=O)c1NC(=O)c1cc(Br)nn1-c1ncccc1Cl [Compound 6] | 100% | 77% | 59% | 100% | –
CNC(=O)c1cc(C#N)cc(C)c1NC(=O)c1cc(Br)nn1-c1ncccc1Cl [Compound 5] | 94% | 96% | 40% | 95% | –
CNC(=O)c1cc(C#N)cc(C)c1NC(=O)c1cc(Cl)nn1-c1ncccc1Cl [Compound 3] | 81% | 96% | – | – | –
Cc1cc(C#N)cc(C(=O)NCC#N)c1NC(=O)c1cc(Br)nn1-c1ncccc1Cl [Compound 27] | 57% | 13% | – | – | –
Cc1cc(C#N)cc(C(=O)NCC#N)c1NC(=O)c1cc(Cl)nn1-c1ncccc1Cl [Compound 26] | 67% | 73% | – | – | –
CNC(=O)c1cc(C#N)cc(C)c1NC(=O)c1cc(C(F)(F)F)nn1-c1ncccc1Cl [Compound 2] | – | – | 64% | 56% | –
